# US11117892B2, “Pyrrolo-pyridine derivative compound, method for preparing same, and pharmaceutical composition containing same as active ingredient for prevention or treatment of protein kinase-related diseases” (DAEGU-GYEONGBUK MEDICAL INNOVATION FOUNDATION, priority 2017, dated 2021)
# Experiments:
# Assay in all cases: scanMAX Kinase assay panel
# Format in all cases: binding
# Conditions in all cases: read-out: % control
# p38-gamma = p38-gamma (Homo sapiens (Human), UniProt P53778)
# Method: (§1) DiscoverX Co. was asked to measure the enzyme (kinase) selectivity, and the experiment was performed using scanMAX™ Kinase assay panel.
# (§2) (Example Compound−Positive Control)/(Negative Control−Positive Control)×100 [Equation 1]
# (§3) Herein, the positive control indicates the compound showing the % control of 0%, and the negative control indicates DMSO showing the % control of 100%.
# AURKC = AURKC (Homo sapiens (Human), UniProt Q9UQB9)
# Chain of AURKC (Q9UQB9 whole entry): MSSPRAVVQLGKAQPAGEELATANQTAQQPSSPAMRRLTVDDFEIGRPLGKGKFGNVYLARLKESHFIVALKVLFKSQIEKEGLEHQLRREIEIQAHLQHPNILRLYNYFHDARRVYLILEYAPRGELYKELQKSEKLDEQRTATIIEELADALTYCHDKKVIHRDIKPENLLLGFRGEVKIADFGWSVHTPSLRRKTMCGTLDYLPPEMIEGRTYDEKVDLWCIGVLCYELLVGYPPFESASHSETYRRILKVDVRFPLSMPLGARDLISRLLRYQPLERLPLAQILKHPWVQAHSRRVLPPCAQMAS
# Method: as §1, §2, §3
# HPK1 = HPK1 (Homo sapiens (Human), UniProt Q92918)
# Method: as §1, §2, §3
# EPHB2 = EPHB2 (Homo sapiens (Human), UniProt P29323)
# Method: as §1, §2, §3
# MAP3K4 = MAP3K4 (Homo sapiens (Human), UniProt Q9Y6R4)
# Method: as §1, §2, §3
# EGFR(G719C) = EGFR(G719C) (Homo sapiens (Human), UniProt P00533, G719C)
# Chain of EGFR(G719C) (P00533 25-1210 G719C): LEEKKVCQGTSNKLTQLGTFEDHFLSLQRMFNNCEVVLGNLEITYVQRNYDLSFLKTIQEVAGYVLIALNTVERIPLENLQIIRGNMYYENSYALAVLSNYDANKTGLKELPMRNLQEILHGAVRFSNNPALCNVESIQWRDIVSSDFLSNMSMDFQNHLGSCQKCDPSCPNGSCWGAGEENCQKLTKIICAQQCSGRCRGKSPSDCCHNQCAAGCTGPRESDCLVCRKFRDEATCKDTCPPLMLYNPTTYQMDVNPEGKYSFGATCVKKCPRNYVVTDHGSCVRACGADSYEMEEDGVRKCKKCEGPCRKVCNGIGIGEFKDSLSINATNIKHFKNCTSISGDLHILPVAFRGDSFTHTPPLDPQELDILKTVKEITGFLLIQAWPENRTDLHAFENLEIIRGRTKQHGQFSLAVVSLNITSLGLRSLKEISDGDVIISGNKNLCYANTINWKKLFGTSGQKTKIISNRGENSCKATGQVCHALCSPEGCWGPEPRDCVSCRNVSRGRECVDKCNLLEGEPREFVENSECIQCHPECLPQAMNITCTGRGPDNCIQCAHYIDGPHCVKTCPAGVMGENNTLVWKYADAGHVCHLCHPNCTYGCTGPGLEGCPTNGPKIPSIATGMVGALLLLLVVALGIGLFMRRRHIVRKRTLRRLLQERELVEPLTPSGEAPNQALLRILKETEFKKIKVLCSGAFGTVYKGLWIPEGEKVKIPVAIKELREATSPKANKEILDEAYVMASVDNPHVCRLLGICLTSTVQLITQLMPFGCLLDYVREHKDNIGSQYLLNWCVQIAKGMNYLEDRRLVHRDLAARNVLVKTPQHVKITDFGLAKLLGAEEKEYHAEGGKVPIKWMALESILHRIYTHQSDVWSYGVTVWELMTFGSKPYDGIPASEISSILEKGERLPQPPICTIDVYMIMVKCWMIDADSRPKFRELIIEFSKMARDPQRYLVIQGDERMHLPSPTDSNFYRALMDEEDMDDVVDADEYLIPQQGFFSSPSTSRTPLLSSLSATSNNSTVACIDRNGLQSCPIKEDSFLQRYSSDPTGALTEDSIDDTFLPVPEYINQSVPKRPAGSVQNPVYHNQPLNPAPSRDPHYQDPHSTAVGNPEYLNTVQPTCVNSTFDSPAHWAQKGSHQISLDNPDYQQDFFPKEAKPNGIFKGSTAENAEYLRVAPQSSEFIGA
# Method: as §1, §2, §3
# PRKCD = PRKCD (Homo sapiens (Human), UniProt Q05655)
# Chain of PRKCD (Q05655 whole entry): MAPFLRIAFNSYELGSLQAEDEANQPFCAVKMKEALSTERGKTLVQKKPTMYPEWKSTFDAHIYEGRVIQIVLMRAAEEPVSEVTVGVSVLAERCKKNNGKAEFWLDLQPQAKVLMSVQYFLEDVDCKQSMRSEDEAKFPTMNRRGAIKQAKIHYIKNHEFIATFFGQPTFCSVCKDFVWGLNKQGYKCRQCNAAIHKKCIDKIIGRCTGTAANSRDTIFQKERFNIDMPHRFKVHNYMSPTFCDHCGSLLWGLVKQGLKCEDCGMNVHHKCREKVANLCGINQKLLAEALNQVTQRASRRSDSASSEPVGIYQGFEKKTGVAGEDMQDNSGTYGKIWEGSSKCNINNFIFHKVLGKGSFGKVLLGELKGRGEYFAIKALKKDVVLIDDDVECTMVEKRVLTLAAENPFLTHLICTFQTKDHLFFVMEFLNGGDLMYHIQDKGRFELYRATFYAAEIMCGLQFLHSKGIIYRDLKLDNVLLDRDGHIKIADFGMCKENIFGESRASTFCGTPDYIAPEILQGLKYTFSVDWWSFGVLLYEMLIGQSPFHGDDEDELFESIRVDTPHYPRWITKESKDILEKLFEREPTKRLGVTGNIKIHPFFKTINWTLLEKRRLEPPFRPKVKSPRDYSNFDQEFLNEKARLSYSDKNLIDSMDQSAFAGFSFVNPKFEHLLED
# Method: as §1, §2, §3
# PRKG2 = PRKG2 (Homo sapiens (Human), UniProt Q13237)
# Method: as §1, §2, §3
# JNK3 = JNK3 (Homo sapiens (Human), UniProt P53779)
# Method: as §1, §2, §3
# CDC2L1 = CDC2L1 (Homo sapiens (Human), UniProt P21127)
# Method: as §1, §2, §3
# PKMYT1 = PKMYT1 (Homo sapiens (Human), UniProt Q99640)
# Chain of PKMYT1 (Q99640 whole entry): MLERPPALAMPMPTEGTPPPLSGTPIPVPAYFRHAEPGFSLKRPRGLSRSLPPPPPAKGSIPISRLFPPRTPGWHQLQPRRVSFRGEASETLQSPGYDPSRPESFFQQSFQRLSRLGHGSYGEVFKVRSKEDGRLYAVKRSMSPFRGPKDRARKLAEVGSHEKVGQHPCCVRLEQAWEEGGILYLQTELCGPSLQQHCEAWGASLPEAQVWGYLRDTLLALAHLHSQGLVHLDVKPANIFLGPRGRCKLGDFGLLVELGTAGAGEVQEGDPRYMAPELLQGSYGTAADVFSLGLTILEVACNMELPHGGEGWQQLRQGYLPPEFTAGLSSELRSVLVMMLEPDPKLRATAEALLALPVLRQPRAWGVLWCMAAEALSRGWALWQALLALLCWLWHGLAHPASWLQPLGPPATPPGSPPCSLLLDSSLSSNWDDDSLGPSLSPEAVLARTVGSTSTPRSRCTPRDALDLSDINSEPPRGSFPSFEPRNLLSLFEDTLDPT
# Method: as §1, §2, §3
# PRKD1 = PRKD1 (Homo sapiens (Human), UniProt Q15139)
# Method: as §1, §2, §3
# BLK = BLK (Homo sapiens (Human), UniProt P51451)
# Method: as §1, §2, §3
# AAK1 = AAK1 (Homo sapiens (Human), UniProt Q2M2I8)
# Method: as §1, §2, §3
# ERBB3 = ERBB3 (Homo sapiens (Human), UniProt P21860)
# Method: as §1, §2, §3
# [1] = target: ABL1(H396P)-phosphorylated (Homo sapiens (Human), UniProt P00519, H396P)
# Method: as §1, §2, §3
# NEK7 = NEK7 (Homo sapiens (Human), UniProt Q8TDX7)
# Method: as §1, §2, §3
# MLK3 = MLK3 (Homo sapiens (Human), UniProt Q16584)
# Method: as §1, §2, §3
# MKK7 = MKK7 (Homo sapiens (Human), UniProt O14733)
# Method: as §1, §2, §3
# MAK = MAK (Homo sapiens (Human), UniProt P20794)
# Chain of MAK (P20794 whole entry): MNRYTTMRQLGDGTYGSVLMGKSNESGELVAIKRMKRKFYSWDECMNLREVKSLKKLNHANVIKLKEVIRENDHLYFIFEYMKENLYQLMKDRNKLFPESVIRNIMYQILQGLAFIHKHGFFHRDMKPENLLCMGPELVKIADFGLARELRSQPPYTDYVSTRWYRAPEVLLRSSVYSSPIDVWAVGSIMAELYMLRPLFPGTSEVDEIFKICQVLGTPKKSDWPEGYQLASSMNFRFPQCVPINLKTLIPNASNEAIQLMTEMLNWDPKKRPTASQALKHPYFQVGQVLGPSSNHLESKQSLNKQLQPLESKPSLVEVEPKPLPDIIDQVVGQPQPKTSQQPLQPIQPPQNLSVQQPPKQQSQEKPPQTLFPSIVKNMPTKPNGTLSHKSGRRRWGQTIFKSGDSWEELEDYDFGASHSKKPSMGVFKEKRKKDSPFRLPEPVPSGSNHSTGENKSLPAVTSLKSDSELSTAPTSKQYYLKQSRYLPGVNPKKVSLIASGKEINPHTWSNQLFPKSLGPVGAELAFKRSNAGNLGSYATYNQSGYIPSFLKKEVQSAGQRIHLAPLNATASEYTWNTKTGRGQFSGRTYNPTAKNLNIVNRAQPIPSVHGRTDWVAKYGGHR
# Method: as §1, §2, §3
# [2] = target: ABL1(T315I)-nonphosphorylated (Homo sapiens (Human), UniProt P00519, T315I)
# Method: as §1, §2, §3
# TESK1 = TESK1 (Homo sapiens (Human), UniProt Q15569)
# Method: as §1, §2, §3
# NEK1 = NEK1 (Homo sapiens (Human), UniProt Q96PY6)
# Method: as §1, §2, §3
# ACVR1 = ACVR1 (Homo sapiens (Human), UniProt Q04771)
# Method: as §1, §2, §3
# ULK1 = ULK1 (Homo sapiens (Human), UniProt O75385)
# Method: as §1, §2, §3
# WNK2 = WNK2 (Homo sapiens (Human), UniProt Q9Y3S1)
# Method: as §1, §2, §3
# RET(V804M) = RET(V804M) (Homo sapiens (Human), UniProt P07949, V804M)
# Method: as §1, §2, §3
# FLT1 = FLT1 (Homo sapiens (Human), UniProt P17948)
# Method: as §1, §2, §3
# SBK1 = SBK1 (Homo sapiens (Human), UniProt Q52WX2)
# Method: as §1, §2, §3
# EGFR(L861Q) = EGFR(L861Q) (Homo sapiens (Human), UniProt P00533, L861Q)
# Chain of EGFR(L861Q) (P00533 25-1210 L861Q): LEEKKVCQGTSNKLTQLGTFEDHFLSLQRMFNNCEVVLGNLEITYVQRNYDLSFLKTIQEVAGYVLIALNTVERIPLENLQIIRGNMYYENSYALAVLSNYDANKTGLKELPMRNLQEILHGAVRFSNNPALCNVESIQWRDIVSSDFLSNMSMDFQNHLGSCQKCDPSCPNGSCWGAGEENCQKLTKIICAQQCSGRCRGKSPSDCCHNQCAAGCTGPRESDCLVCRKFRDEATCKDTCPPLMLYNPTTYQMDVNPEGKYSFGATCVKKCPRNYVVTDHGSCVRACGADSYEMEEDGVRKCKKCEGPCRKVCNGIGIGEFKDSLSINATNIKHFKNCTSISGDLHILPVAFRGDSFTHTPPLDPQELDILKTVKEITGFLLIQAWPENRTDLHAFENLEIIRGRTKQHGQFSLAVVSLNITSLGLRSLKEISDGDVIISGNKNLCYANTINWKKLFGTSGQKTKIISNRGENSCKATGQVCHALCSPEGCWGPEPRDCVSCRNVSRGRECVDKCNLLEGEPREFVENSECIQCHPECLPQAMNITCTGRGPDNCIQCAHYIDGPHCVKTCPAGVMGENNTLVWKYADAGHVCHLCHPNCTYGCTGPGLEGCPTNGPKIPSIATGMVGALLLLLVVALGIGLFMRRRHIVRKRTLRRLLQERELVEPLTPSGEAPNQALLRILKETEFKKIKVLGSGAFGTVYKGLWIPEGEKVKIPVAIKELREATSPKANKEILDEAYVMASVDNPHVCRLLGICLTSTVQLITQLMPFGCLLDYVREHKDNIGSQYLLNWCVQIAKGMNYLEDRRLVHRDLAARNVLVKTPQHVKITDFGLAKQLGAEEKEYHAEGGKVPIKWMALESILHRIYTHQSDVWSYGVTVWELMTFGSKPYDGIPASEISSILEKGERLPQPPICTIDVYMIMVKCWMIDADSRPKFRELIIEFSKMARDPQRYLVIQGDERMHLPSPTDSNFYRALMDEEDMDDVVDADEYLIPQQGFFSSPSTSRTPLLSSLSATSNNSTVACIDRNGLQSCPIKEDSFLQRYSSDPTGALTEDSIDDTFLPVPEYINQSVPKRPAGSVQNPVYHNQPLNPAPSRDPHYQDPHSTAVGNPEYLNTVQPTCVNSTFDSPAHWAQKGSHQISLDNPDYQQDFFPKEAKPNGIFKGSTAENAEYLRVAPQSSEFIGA
# Method: as §1, §2, §3
# p38-beta = p38-beta (Homo sapiens (Human), UniProt Q15759)
# Method: as §1, §2, §3
# MEK1 = MEK1 (Homo sapiens (Human), UniProt Q02750)
# Method: as §1, §2, §3
# [3] = target: RSK2(Kin.Dom.1-N-terminal) (Homo sapiens (Human), UniProt P51812)
# Method: as §1, §2, §3
# MLK2 = MLK2 (Homo sapiens (Human), UniProt Q02779)
# Method: as §1, §2, §3
# [4] = target: ABL1(F317I)-phosphorylated (Homo sapiens (Human), UniProt P00519, F317I)
# Method: as §1, §2, §3
# CAMKK2 = CAMKK2 (Homo sapiens (Human), UniProt Q96RR4)
# Chain of CAMKK2 (Q96RR4 whole entry): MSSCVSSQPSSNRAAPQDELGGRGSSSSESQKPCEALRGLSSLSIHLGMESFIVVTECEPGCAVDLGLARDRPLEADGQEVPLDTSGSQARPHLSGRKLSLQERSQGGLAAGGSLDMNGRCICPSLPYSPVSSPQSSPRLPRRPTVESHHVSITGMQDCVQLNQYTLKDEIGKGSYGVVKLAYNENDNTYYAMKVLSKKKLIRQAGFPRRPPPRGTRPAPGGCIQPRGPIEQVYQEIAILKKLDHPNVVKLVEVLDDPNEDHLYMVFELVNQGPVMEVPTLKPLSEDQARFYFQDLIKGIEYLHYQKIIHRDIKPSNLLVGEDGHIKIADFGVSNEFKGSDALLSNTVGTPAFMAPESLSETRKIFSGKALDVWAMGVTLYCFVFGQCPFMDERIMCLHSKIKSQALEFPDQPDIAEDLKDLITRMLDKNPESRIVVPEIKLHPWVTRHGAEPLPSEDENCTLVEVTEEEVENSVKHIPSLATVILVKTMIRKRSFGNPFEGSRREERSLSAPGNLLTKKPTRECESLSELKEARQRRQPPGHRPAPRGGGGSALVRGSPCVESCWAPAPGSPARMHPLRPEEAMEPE
# Method: as §1, §2, §3
# ERK2 = ERK2 (Homo sapiens (Human), UniProt P28482)
# Method: as §1, §2, §3
# EPHB6 = EPHB6 (Homo sapiens (Human), UniProt O15197)
# Method: as §1, §2, §3
# [5] = target: ABL1(M351T)-phosphorylated (Homo sapiens (Human), UniProt P00519, M351T)
# Method: as §1, §2, §3
SMILES,remaining binding at 1 µM (p38-gamma) [%],remaining binding at 1 µM (AURKC) [%],remaining binding at 1 µM (HPK1) [%],remaining binding at 1 µM (EPHB2) [%],remaining binding at 1 µM (MAP3K4) [%],remaining binding at 1 µM (EGFR(G719C)) [%],remaining binding at 1 µM (PRKCD) [%],remaining binding at 1 µM (PRKG2) [%],remaining binding at 1 µM (JNK3) [%],remaining binding at 1 µM (CDC2L1) [%],remaining binding at 1 µM (PKMYT1) [%],remaining binding at 1 µM (PRKD1) [%],remaining binding at 1 µM (BLK) [%],remaining binding at 1 µM (AAK1) [%],remaining binding at 1 µM (ERBB3) [%],remaining binding at 1 µM [1] [%],remaining binding at 1 µM (NEK7) [%],remaining binding at 1 µM (MLK3) [%],remaining binding at 1 µM (MKK7) [%],remaining binding at 1 µM (MAK) [%],also measured
"CCNc1cc(Nc2ccc(C(=O)N3CCC(N4CCOCC4)CC3)cc2OC)nc2[nH]cc(C#N)c12 [Example 18, 4-(ethylamino)-6-((2-methoxy-4-(4-morpholinopiperidine-1-carbonyl)phenyl)amino)-1H-pyrrolo[2,3-b]pyridine-3-carbonitrile]",77,92,76,87,96,95,75,58,0,100,90,14,99,69,97,85,89,99,89,92,remaining binding at 1 µM [2]: 96%; remaining binding at 1 µM (TESK1): 90%; remaining binding at 1 µM (NEK1): 100%; remaining binding at 1 µM (ACVR1): 92%; remaining binding at 1 µM (ULK1): 78%; remaining binding at 1 µM (WNK2): 91%; remaining binding at 1 µM (RET(V804M)): 99%; remaining binding at 1 µM (FLT1): 46%; remaining binding at 1 µM (SBK1): 86%; remaining binding at 1 µM (EGFR(L861Q)): 85%; remaining binding at 1 µM (p38-beta): 77%; remaining binding at 1 µM (MEK1): 19%; remaining binding at 1 µM [3]: 78%; remaining binding at 1 µM (MLK2): 72%; remaining binding at 1 µM [4]: 80%; remaining binding at 1 µM (CAMKK2): 52%; remaining binding at 1 µM (ERK2): 94%; remaining binding at 1 µM (EPHB6): 78%; remaining binding at 1 µM [5]: 100%
"CCNc1cc(Nc2ccc(C(=O)N3CCC(N4CCOCC4)CC3)cc2OC)nc2[nH]cc(C(F)(F)F)c12 [Example 57, (4-((4-(ethylamino)-3-(trifluoromethyl)-1H-pyrrolo[2,3-b]pyridin-6-yl)amino)-3-methoxyphenyl) (4-morpholinopiperidin-1-yl)methanone]",77,95,91,100,79,91,87,85,52,90,96,73,73,54,100,100,85,80,93,95,remaining binding at 1 µM [2]: 100%; remaining binding at 1 µM (TESK1): 79%; remaining binding at 1 µM (NEK1): 81%; remaining binding at 1 µM (ACVR1): 88%; remaining binding at 1 µM (ULK1): 94%; remaining binding at 1 µM (WNK2): 100%; remaining binding at 1 µM (RET(V804M)): 95%; remaining binding at 1 µM (FLT1): 94%; remaining binding at 1 µM (SBK1): 90%; remaining binding at 1 µM (EGFR(L861Q)): 94%; remaining binding at 1 µM (p38-beta): 76%; remaining binding at 1 µM (MEK1): 100%; remaining binding at 1 µM [3]: 96%; remaining binding at 1 µM (MLK2): 77%; remaining binding at 1 µM [4]: 100%; remaining binding at 1 µM (CAMKK2): 49%; remaining binding at 1 µM (ERK2): 74%; remaining binding at 1 µM (EPHB6): 99%; remaining binding at 1 µM [5]: 98%
